In patent publication US11559598B2, “Alcohol free, low viscosity, and high water content air freshener compositions” (Belle-Aire Fragrances, LLC, priority 2020, dated 2023):
Values after ≈ are worked out from the molar mass of the structure shown.

Experiments:
[1] = at 25° C.; cited from earlier work
[2] = Viscosity by Brookfield Rotational Viscometer; assay type: physicochemical; details: 20% BAC1342 in distilled water
Procedure: Two of the compositions used traditional used surfactants (polysorbate 20 and octylphenol oxylate), and the third used a glycol ether (diethylene glycol mono butyl ether). The appearances of the compositions were recorded and their viscosities were measured using a Brookfield Rotational Viscometer with Spindle #1 and Rotational Speed at 12 RPM: […]

[3] = Appearance of air freshener compositions with 20% BAC1342; assay type: physicochemical; details: 20% BAC1342 in distilled water, without any other surfactants
Procedure: Two of the compositions used traditional used surfactants (polysorbate 20 and octylphenol oxylate), and the third used a glycol ether (diethylene glycol mono butyl ether). The appearances of the compositions were recorded and their viscosities were measured using a Brookfield Rotational Viscometer with Spindle #1 and Rotational Speed at 12 RPM:
Both of the prior art surfactants fail to form transparent microemulsion with 20% BAC1342 in distilled water.

## CC(CC=O)c1ccc(C(C)(C)C)cc1 (stereo not shown) [3-(4-tert-butylphenyl)butanal]
[1]
  water solubility: 38 µg/mL (≈ 186 µM)

## CCCCOCCOCCO [diethylene glycol n-butyl ether]
[2]
  viscosity (in words): low enough to be applied in various formats such as room sprays and plug-ins
[3]
  formation of transparent microemulsion: forms clear microemulsion

## C=C1CC/C=C(\C)CC[C@@H]2[C@@H]1CC2(C)C [Beta-caryophyllene]
[1]
  water solubility: 0.05 µg/mL (≈ 0.245 µM)
